Assay results: patent US6936622B2, “6-phenylbenzonaphthyridines” (Altana Pharma AG, priority 2001, dated 2005)
Structures can show the parent of a compound that is named as a salt.

Assays:
[1] = biological target: PDE4 (cAMP-specific); experiment: Inhibition of PDE isoenzymes: PDE4; type: biochemical; details: cytosol of human polymorphonuclear leukocytes (PMNL), cAMP as substrate, motapizone 1 μM
Procedure: (§1) 1. Inhibition of PDE Isoenzymes
(§2) The PDE activity was determined according to Thompson et al. (Adv Cycl Nucl Res 10: 69-92, 1979) with some modifications (Bauer and Schwabe, Naunyn-Schmiedeberg's Arch Pharmacol 311: 193198, 1980). The test samples contained 20 mM Tris (pH 7.4), 5 mM MgCl2, 0.5 μM cAMP or cGMP, [^3H]cAMP or [^3H]cGMP (about 30 000 cpm/sample), the PDE isoenzyme-specific additives described in greater detail below, the indicated concentrations of inhibitor and an aliquot of the enzyme solution in a total sample volume of 200 μl. Dilution series of the compounds according to the invention were prepared in DMSO and further diluted in the samples [1:100 (v/v)], to give the desired end concentration of the inhibitors at a DMSO concentration of 1% (v/v), which for its part has only a minute effect on PDE activity.
(§3) After preincubation at 37° C. for 5 minutes, the reaction was started by addition of the substrate (cAMP or cGMP). The samples were incubated at 37° C. for a further 15 min. The reaction was terminated by addition of 50 μl 0.2 N HCl. After cooling on ice for 10 minutes and addition of 25 μg 5′-nucleotidase (snake venom from Crotalus atrox), the mixture was again incubated at 37° C. for 10 min and the samples were then applied to QAE Sephadex A-25 columns (sample volume 1 ml). The columns were eluted with 2 ml of 30 mM ammonium formate (pH 6.0). The radioactivity of the eluate was measured and corrected by the corresponding blank values (measured in the presence of denatured protein); the blank values were less than 5% of the total radioactivity. In no case did the proportion of hydrolyzed nucleotide exceed 30% of the original substrate concentration.
PDE4 (cAMP-specific) was investigated in the cytosol of human polymorphonuclear leukocytes (PMNL) [isolated from leukocyte concentrates, see Schudt et al., Arch Pharmacol 1991: 344, 682-690] using cAMP as substrate. The PDE3 inhibitor motapizone (1 μM) was used to suppress the PDE3 activity emanating from contaminated platelets.
(§4) The IC50 values were determined from the concentration-inhibition curves by nonlinear regression.

[2] = biological target: T1, PDE3 (cGMP-inhibited) (Homo sapiens, UniProt Q14432); experiment: Inhibition of PDE isoenzymes: PDE3; type: biochemical; details: homogenates of human platelets, cAMP or cGMP as substrate; read-out: PDE3 [-log IC50, mol/l] (converted)
T1 construct: investigated in homogenates of human platelets; from tissue; host or cells: homogenates of human platelets
Procedure: as §1, §2, §3
PDE3 (cGMP-inhibited) was investigated in homogenates of human platelets (see Schudt et al., Biochem Pharmacol 1991: 42, 153-162) using cAMP or cGMP as substrate.
as §4

T1 sequence (Q14432 whole entry): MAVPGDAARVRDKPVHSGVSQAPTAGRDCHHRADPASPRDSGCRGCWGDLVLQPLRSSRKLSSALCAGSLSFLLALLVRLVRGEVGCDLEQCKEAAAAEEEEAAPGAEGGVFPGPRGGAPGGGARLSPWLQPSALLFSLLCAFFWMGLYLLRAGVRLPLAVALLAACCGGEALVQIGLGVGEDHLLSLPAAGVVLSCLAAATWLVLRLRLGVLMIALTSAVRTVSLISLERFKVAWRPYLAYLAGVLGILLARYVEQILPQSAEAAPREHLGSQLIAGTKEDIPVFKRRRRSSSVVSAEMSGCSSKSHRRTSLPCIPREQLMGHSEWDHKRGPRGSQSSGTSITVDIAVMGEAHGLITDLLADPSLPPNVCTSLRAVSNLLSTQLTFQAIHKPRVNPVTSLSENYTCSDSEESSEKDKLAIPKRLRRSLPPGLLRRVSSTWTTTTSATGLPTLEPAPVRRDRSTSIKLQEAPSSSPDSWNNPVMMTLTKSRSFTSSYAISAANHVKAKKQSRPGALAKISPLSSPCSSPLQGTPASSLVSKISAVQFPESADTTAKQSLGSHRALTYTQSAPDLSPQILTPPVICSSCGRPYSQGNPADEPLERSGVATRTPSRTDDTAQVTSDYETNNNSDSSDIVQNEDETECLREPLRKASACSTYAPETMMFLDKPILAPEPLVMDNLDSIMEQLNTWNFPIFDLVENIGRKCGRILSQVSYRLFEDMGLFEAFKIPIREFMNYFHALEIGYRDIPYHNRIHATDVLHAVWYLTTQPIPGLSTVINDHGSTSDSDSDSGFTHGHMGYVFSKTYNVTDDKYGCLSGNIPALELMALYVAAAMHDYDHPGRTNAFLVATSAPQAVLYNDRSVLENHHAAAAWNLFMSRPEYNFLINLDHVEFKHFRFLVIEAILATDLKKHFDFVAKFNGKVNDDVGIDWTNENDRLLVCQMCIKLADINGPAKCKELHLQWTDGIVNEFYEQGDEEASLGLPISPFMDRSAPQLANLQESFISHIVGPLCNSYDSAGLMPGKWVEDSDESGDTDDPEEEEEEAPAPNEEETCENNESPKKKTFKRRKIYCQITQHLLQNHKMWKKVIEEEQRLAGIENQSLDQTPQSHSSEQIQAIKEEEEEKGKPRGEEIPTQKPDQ

Row | SMILES | PDE4 [-log IC50, mol/l] [1] | IC50 [2] | melting point
1 | CCOc1cc2c(cc1OC)C(c1cccc(C(=O)NC(=N)N(C)C)c1)=NC1CCN(C)CC21 (stereo not drawn) [Compound 10, N′-{1-[3-(cis)-9-Ethoxy-8-methoxy-2-methyl-1,2,3,4,4a,10b-hexahydro-benzo[c][c][1,6]naphthyridin-6-yl)-phenyl]-methanoyl}-N,N-dimethyl-guanidine] | 8.15 | 891 nM | 186 to 188 °C
2 | CCOc1cc2c(cc1OC)C(c1ccc(C(=O)NC(=NC)N(C)C)cc1)=N[C@H]1CCN(C)C[C@@H]21.Cl (relative stereo) [Compound 13, N′-{1-[4-((cis)-9-Ethoxy-8-methoxy-2-methyl-1,2,3,4,4a,10b-hexahydro-benzo[c][1,6]naphthyridin-6-yl)-phenyl]-methanoyl}-N,N,N″-trimethyl-guanidine hydrochloride] | 9.34 | 91.2 nM | 143 to 150 °C
3 | CCOc1cc2c(cc1OC)C(c1ccc(C(=O)NC(=N)N3CCCC3)cc1)=N[C@H]1CCN(C)C[C@@H]21 (relative stereo) [Compound 11, 4-((cis)-9-Ethoxy-8-methoxy-2-methyl-1,2,3,4,4a,10b-hexahydro-benzo[c][1,6]naphthyridin-6-yl)-N-(1-imino-1-pyrrolidin-1-yl-methyl)-benzamide] | 8.41 | 550 nM | 145 to 152 °C
4 | CCOc1cc2c(cc1OC)C(c1ccc(C(=O)N=C(N)N3CCN(C)CC3)cc1)=NC1CCN(C)CC21 (stereo not drawn) (as salt: hydrochloride) [Compound 6, N-[1-Amino-1-(4-methylpiperazin-1-yl)methylene]-4-((+)-cis-9-ethoxy-8-methoxy-2-methyl-1,2,3,4,4a,10b-hexahydro[c][1,6]naphthyridin-6-yl)benzamide dihydrochloride] | – | – | 209 to 215 °C
5 | CCOc1cc2c(cc1OC)C(c1ccc(C(=O)NC(=N)N(C)CCO)cc1)=NC1CCN(C)CC21 (stereo not drawn) (as salt: hydrochloride) [Compound 4, N′-{1-[4-((+)-cis-9-Ethoxy-8-methoxy-2-methyl-1,2,3,4,4a,10b-hexahydro[c][1,6]naphthyridin-6-yl)phenyl]methanoyl}-N-(2-hydroxyethyl)-N-methylguanidine dihydrochloride] | – | – | 172 to 179 °C
6 | CCOc1cc2c(cc1OC)C(c1ccc(C(=O)NC(=N)N(C)C)cc1)=NC1CC[N+](C)([O-])CC21 (single isomer, unassigned) [Compound 22, N′-{1-[4-((−)-cis-9-Ethoxy-8-methoxy-2-methyl-2-oxy-1,2,3,4,4a,10b-hexahydro-benzo[c][1,6]naphthyridin-6-yl)-phenyl]-methanoyl}-N,N-dimethyl-guanidine] | 7.71 | 676 nM | 220 to 224 °C
